58 compounds from the METLIN SMRT retention time set (Domingo-Almenara et al. 2019) can be followed below.

The data set can be described thus: gradient 5% acetonitrile 3 min, to 50% in 2 min, to 85% in 15 min, held 3 min, 100 µL/min. The following applies: column: Zorbax Extend-C18 2.1 x 50 mm; eluents: water / acetonitrile, 0.1% formic acid. The method in brief:
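Each retention time is based on an adduct peak selected computationally and verified by manual inspection. Measurements used HPLC–quadrupole time-of-flight mass spectrometry in positive and negative ionization mode on mixtures of ~100 pure standards. Chromatography ran on a Zorbax Extend-C18 column (2.1 × 50 mm, 1.8 μm) at 100 μL/min with water and acetonitrile, each containing 0.1% formic acid, and dead and dwell volumes of 40 μL and 900 μL.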
For `Cc1nc(-c2cccnc2)sc1C(=O)/C=C/c1ccc(Cl)cc1Cl`, the RP-LC retention time came to 1150 s. As for `CCOc1ccc(NS(=O)(=O)c2cc(-c3[nH]ncc3C(=O)N(C)C)oc2C)cc1`, the RP-LC retention time is 686 s. With `CCOc1ccccc1NC(=O)N1CCC2(CC1)NC(=O)c1cc(Cl)ccc1N2C`, the RP-LC retention time is 904 s. `O=C(NCc1ccco1)C1CCN(S(=O)(=O)c2cc(C(=O)N3CCCC3)cs2)CC1` displayed an RP-LC retention time of 715 s. `Cc1ccccc1NC(=O)N1CCCC1c1nc(-c2ccc(F)cc2F)no1` (stereo not drawn) displayed an RP-LC retention time of 932 s. In the case of `O=C(NCC(O)C1CCCCC1)C(c1ccccc1)c1ccccc1` (stereo not drawn), the RP-LC retention time was determined as 907 s.

In turn, `C[C@@H]1C[C@H]2[C@@H]3C[C@H](F)C4=CC(=O)C(Cl)=C[C@]4(C)[C@@]3(F)[C@@H](O)C[C@]2(C)[C@@]1(O)C(=O)CO` came in with an RP-LC retention time of 847 s. The compound `COc1ccc(Cl)cc1NS(=O)(=O)c1cc(-c2c(C)noc2NC(C)=O)ccc1OC` came in with an RP-LC retention time of 823 s. The compound `CCn1c(=O)c2c(cc(C)n2C)n(CC(=O)Nc2ccc(C)cc2C)c1=O` yielded an RP-LC retention time of 812 s. For `Cc1ccccc1-c1noc(-c2cccnc2N2CCN(Cc3ccccc3)CC2)n1` the value was 803 s; for `CCc1nn2c(CNS(=O)(=O)c3ccc(Cl)cc3C)c(-c3ccccc3)nc2s1`, 1050 s. In turn, `COc1ccc(/C=C\c2onc(C)c2NC(C)=O)cc1S(=O)(=O)N1CCN(c2ncccn2)CC1` returned an RP-LC retention time of 738 s. As to `O=C(CSc1nc2ncccc2[nH]1)Nc1ccccc1C(F)(F)F`, the RP-LC retention time worked out at 649 s. The value for `O=C(Nc1ccccc1F)N1CCCC(Cn2c(C3CC3)nc3cccnc32)C1` (stereo not drawn) was 656 s; that for `CCOC(=O)C1CCC(CNC(=O)N2CCC(c3nc4ccncc4n3C)C2)CC1` (stereo not drawn) was 548 s; that for `CCn1nc(C)c(S(=O)(=O)N2CCN(C(=O)C3(c4ccc(OC)cc4)CC3)CC2)c1C` was 797 s. `C=Cc1ccc(CSc2nnc3c(S(=O)(=O)N4CCCC4)cccn23)cc1` yielded an RP-LC retention time of 884 s. `Cc1ccc(S(=O)(=O)N2C[C@@H](F)C[C@H]2C(=O)N2CCOCC2)cc1F` gave an RP-LC retention time of 710 s. Turning to `CCCc1nc(NCc2ccc(OC)c(OC)c2)ncc1C(=O)O`, the RP-LC retention time came to 740 s. Regarding `CN1CC(=O)N(CC(=O)Nc2ccc(OC(F)(F)F)cc2)c2ccccc2C1=O`, the RP-LC retention time worked out at 777 s. With `Cc1ccc(C(=O)NCc2ccc3c(c2)nnn3C)cc1`, the RP-LC retention time is 693 s. Consider `CC(C)n1cnc2ccc(-c3noc(CCc4ccccc4)n3)cc21`, for which the RP-LC retention time came out at 797 s. The value for `Cc1ccc(-c2csc3c(=O)n(CC(=O)N4CCOc5ccc(C)cc54)cnc23)cc1` was 1120 s; that for `Cc1ccc(CNC(=O)Nc2c(-c3ccccc3)nc3ccccn23)cc1` was 662 s.

Consider `CC1CCCN(C(=O)C2CC(=O)N(c3ccc4c(c3)CCN4C(=O)C3CC3)C2)C1` (stereo not drawn), for which the RP-LC retention time came out at 758 s.

`Cc1cc(OCC(=O)NCc2ccco2)nc(N2CCC(C)CC2)n1` displayed an RP-LC retention time of 650 s.

`O=C(C1CC1)N1CCc2sc(S(=O)(=O)Nc3cccc(F)c3)cc2C1` yielded an RP-LC retention time of 829 s.

The compound `CCOc1ccc(N2CC(c3nnc(NC(=O)CCc4ccccc4)o3)CC2=O)cc1` (stereo not drawn) registered an RP-LC retention time of 726 s.

Compound `Cc1ccc(-c2nc3nc(C)c(CC(=O)NC(C)C)c(C)n3n2)cc1` came in with an RP-LC retention time of 761 s. In turn, `COc1ccc(Cl)cc1S(=O)(=O)NCc1cccnc1-c1cccc(C)c1` returned an RP-LC retention time of 771 s.

As to `Cc1ccc(-c2ncc(C(=O)Nc3ccccc3Br)c(-c3ccncc3)n2)cc1`, the RP-LC retention time stood at 994 s. Take `CCCn1cc(S(=O)(=O)Nc2ccc(C)c(F)c2)c2cccnc21`: the RP-LC retention time is 921 s. On to `COc1ccc(N2CC(c3noc(-c4ccc(OC)c(F)c4)n3)CC2=O)cc1` (stereo not drawn), for which the RP-LC retention time is 856 s. For `CCCN1CCn2cc(S(=O)(=O)Nc3cccc(C)c3C)cc2C1=O`, the RP-LC retention time stood at 758 s. On to `Cc1ccc(-c2nc(Cn3ccn4nc(-c5ccc(F)cc5)cc4c3=O)c(C)o2)cc1`, for which the RP-LC retention time came out at 1220 s. Turning to `Cc1cccc2nnc(N3CCCC(C(=O)N4CCN(c5ccccc5)CC4)C3)n12` (stereo not drawn), the RP-LC retention time worked out at 614 s. The value for `CC1CN(C(=O)Cn2cc(SCC(=O)NC3CCCC3)c3ccccc32)CC(C)O1` (stereo not drawn) was 826 s. In turn, `CCOc1ccc(-n2c(=O)c3sccc3n(Cc3nc(-c4cccc(OCC)c4)no3)c2=O)cc1` came in with an RP-LC retention time of 1080 s. On to `COCc1noc(C2CCCCCN2C(=O)NC(C)C)n1` (stereo not drawn), for which the RP-LC retention time was determined as 730 s. `CCC(CC)C(=O)N1CCC(N2CCN(CC)C2=O)CC1` came in with an RP-LC retention time of 686 s. In the case of `CN1CCC2(CC1)CN(C(=O)Nc1ccccc1)CC2c1nc(-c2ccccc2)no1` (stereo not drawn), the RP-LC retention time was found to be 659 s. For `Cc1cc(N2CCN(C(=O)Nc3ccc(C)c(Cl)c3)CC2)nc(N2CCOCC2)n1`, the RP-LC retention time stood at 688 s. Turning to `CC(C)c1nc2nccc(-c3ccccc3)n2n1`, the RP-LC retention time was determined as 827 s. The compound `COc1cc(C)c(C)cc1S(=O)(=O)N1CCN(c2ccc(-c3cccnc3)nn2)CC1` displayed an RP-LC retention time of 649 s. In turn, `CCn1cc(C(=O)NCc2ccccc2C)c2cccnc21` came in with an RP-LC retention time of 809 s. For `Cn1cnc2c(=O)oc3ccc(S(=O)(=O)N4CCN(c5ccccn5)CC4)cc3c21` the value was 576 s. With `Cc1ccc(Cl)cc1NC(=O)NCCc1cn(CC(C)C)c2ncccc12`, the RP-LC retention time was 946 s. Consider `COC(=O)c1ccc(NC(=O)Cc2csc3nc(-c4ccc(OC)c(OC)c4)cn23)cc1`, for which the RP-LC retention time worked out at 734 s. For `Cc1ccccc1-c1noc(-c2nn(-c3ccc(Cl)cc3)ccc2=O)n1` the value was 1010 s; for `O=C(Nc1ccc(F)cc1)C1CCCN(S(=O)(=O)Cc2ccc(F)cc2)C1` (stereo not drawn), 933 s. In the case of `COc1ccc(CC(=O)Nc2cnn(-c3ncc(N(C)C)cn3)c2)cc1Cl`, the RP-LC retention time stood at 740 s. `COc1ccccc1-c1nc(-c2ccc3ncn(C(C)C)c3c2)no1` yielded an RP-LC retention time of 741 s. The value for `CCS(=O)(=O)N1CC(=O)N(c2ccc(F)cc2)C(C)(C(=O)NCc2ccc(F)cc2)C1` (stereo not drawn) was 743 s; that for `Cc1nn(-c2cc(N3CCCCC3)ncn2)c(C)c1CCC(=O)NCc1ccccn1` was 646 s. As for `Cn1nc(-c2nnc(-c3ccccc3F)o2)c2c1CCN(S(=O)(=O)c1ccc3c(c1)CCC3)C2`, the RP-LC retention time was found to be 1010 s. In turn, `CCCc1nc(NCc2cc(OC)ccc2OC)ncc1C(=O)O` registered an RP-LC retention time of 863 s. For the compound `CCCNC(=O)CCc1ccc2nc(-c3ccccc3)[nH]c2c1`, the RP-LC retention time turned out to be 593 s. Compound `COc1ccc(Cl)cc1NC(=O)N1CCN(c2ccc3nncn3n2)CC1` came in with an RP-LC retention time of 667 s.
